3 compounds from patent US4203990A, “Anti-diarrheal 2-substituted quinuclidines” (G. D. Searle & Co., priority 1979, dated 1980) can be followed below.

Assay [1] has as its system gastrointestinal propulsive motility. Kind of assay: Mouse Cecal Test (charcoal in cecum, inhibition of gastrointestinal propulsive motility). As to conditions: oral/IG, test compound 30 min before charcoal, cecum examined 3.5 h after charcoal, logistic method of Berkson. Format: in vivo, male Charles River mice. An excerpt:
The present compounds are potent anti-diarrheal agents as evidenced by their ability to inhibit gastrointestinal propulsive motility as set forth in the following tests:
The method used for this assay is a modification of the techniques previously described by Macht and Barba-Gose, J. Amer. Pharm. Ass., 20, 558 (1931), and Janssen and Jageneau, J. Pharm. Pharmacol., 9, 381 (1957). Details are as follows:
A group of six, male Charles River mice weighing 20-25 g. which have been previously fasted for 24 hours are pretreated with the test compounds administered orally as a solution in water or suspended in 0.5% methyl cellulose. A constant volume of 10 ml./kg. is employed. Thirty minutes following administration of the test compounds, the animals are given a single oral dose of charcoal which consists of 0.2 ml. per mouse of 10% charcoal suspended in 1.0% methyl cellulose. Three and a half hours after charcoal administration, the animals are sacrificed and the cecum examined for the absence or presence of charcoal on an all-or-none basis.
The median effective dose (ED50) is then calculated for each compound using the logistic method of Berkson (1953).

The test system of assay [2] is castor oil-induced diarrhea. Kind of assay: Castor Oil-Induced Diarrhea in the Rat. Format: in vivo, Charles River male rats. As to conditions: po, intragastric, 1 h before castor oil (1.0 ml per rat), at 2 hours past castor oil, method of Berkson. On the procedure: Adult Charles River male rats are fasted in community cages for 24 hours prior to the test, with free access to water. The test compound is then administered intragastrically (suspended on 0.5% methyl cellulose) one hour prior to the intragastric administration of a dose of 1.0 ml. castor oil per rat. The rats are then observed for the presence or absence of diarrhea at hourly intervals for up to 8 hours past the castor oil administration. Using the method of Berkson (1953), the median effective dose (ED50) values are calculated at each hourly interval for the test compound.
The median effective dose at 2 hours past the castor oil administration for the following representative compound of the present invention in the castor oil-induced diarrhea in the Rat test is: […]

Each structure is given as a SMILES string.

On to `Cl.c1ccc(C(CC2CC3CCN2CC3)(c2ccccc2)c2ccccc2)cc1` (stereo not shown) [2-(2,2,2-triphenylethyl)-1-azabicyclo[2.2.2] octane hydrochloride], for which the ED50 was 0.9 ± 0.2 mg/kg in assay [1] and 0.2 ± 0.05 mg/kg in assay [2].

Compound `Cl.c1ccc(C(CC2CC3CCN2CC3)(c2ccccc2)c2ccccn2)cc1` (stereo not shown) [2-[2,2-diphenyl-2-(2-pyridyl)ethyl]-1-azabicyclo[2.2.2]octane hydrochloride] showed an ED50 in assay [1] of 18.1 ± 10.3 mg/kg.

For the compound `Cc1nnc(C(CC2CC3CCN2CC3)(c2ccccc2)c2ccccc2)o1.Cl` (stereo not shown) [2-[2-(5-methyl-1,3,4-oxadiazol-2-yl)-2,2-diphenylethyl]-1-azabicyclo[2.2.2]octane hydrochloride], the 50% effect level in assay [1] (ED50) was put at a dose of 4.4 ± 1.3 mg/kg. Compared with the last compound, the ED50 is about 4.1-fold lower.

The ED50 is the dose at which the effect has come halfway, by size or by number of responders. A higher ED50 goes with weaker potency.
